Measured values reported in patent US7521454B2 (Dainippon Sumitomo Pharma Co., Ltd., priority 2001, dated 2009).

Tests used:
Balb/c male mouse = assay: Interferon-inducing activity in mouse (in vivo), serum interferon titer after oral dosing; conditions: serum 2 h after dosing, Balb/c mouse
OV2944-HM-1 cells = assay: Antitumor effect in mouse model of spontaneous metastasis (OV2944-HM-1); assay type: in vivo; conditions: 35 days after transplantation, Example 27 3 mg/kg oral, mIFN-α 5×10^4 U intradermal
Protocol: OV2944-HM-1 cells (obtained from Hiroshima University) derived from mouse ovarian cancer that is highly metastatic to the lymph nodes were intradermally transplanted to the buttocks of 6-week-old B6C3F1 female mice (Charles River Japan, Inc.) in amounts of 1×10^6 cells/0.05 ml/mouse. Ten days after the transplantation, the primary tumor was excised under Nembutal anaesthesia. Adhesives (Aron Alpha) were applied to the excised portions, and the stumps were sewed up with wound clips. The next day, body weights were measured, and they were divided into 3 groups (each group comprising 6 mice) in such a manner that the average body weights among groups were substantially the same. Vehicles (aqueous solutions of 0.5% CMC-Na) and the compound of Example 27 (3 mg/kg) were forcibly administered orally using an oral Sonde (10 ml/kg). Also, 5×10^4 U/0.1 ml/mouse of mIFN-α was intradermally administered through their backs. Administration was carried out 5 times every 4 days. Regional lymph nodes (mouse cervical, brachium, axillary cavity) were extirpated 35 days after the transplantation, and their wet weights were measured. Simultaneously, lungs were extirpated to visually inspect the metastasis. Also, significant difference was examined in accordance with Steel's multiple comparison. The SAS system for Windows Release 8.01 (SAS Institute Inc., Cary, N.C., U.S.A.) was used for the examination.
Thus, pulmonary metastasis was examined.

CCCCNc1nc(N)c2nc(O)n(Cc3ccc(C)nc3)c2n1 [Example 27, 2-Butylamino-8-hydroxy-9-(6-methyl-3-pyridylmethyl)adenine]
Interferon-inducing activity (Balb/c male mouse; dosage 0.03 mg/kg oral): 14 ± 3 U/ml
Interferon-inducing activity (Balb/c male mouse; dosage 0.1 mg/kg oral): 324 ± 66 U/ml
Interferon-inducing activity (Balb/c male mouse; dosage 0.3 mg/kg oral): 804 ± 274 U/ml
pulmonary metastasis (visual inspection), in words (OV2944-HM-1 cells): not observed at all
lymph node metastasis (wet weight of metastasis lymph nodes vs vehicle group) (OV2944-HM-1 cells; B6C3F1 mice, 5 times every 4 days): smaller than those attained from the group to which vehicles were administered
The number of mice which exhibited pulmonary metastasis in 6 mice (OV2944-HM-1 cells; visual inspection): 0
